Experimental data published in ChEMBL document CHEMBL4229478, “Synthesis, Characterization, and Biological Evaluation of a Porphyrin-Based Photosensitizer and Its Isomer for Effective Photodynamic Therapy against Breast Cancer” (J Med Chem, 2018).
Activity calls are given as the source filed them. The rule behind the calls is not given here.

Experiments:
Mus musculus [1] = test: Hepatotoxicity in BALB/c mouse xenografted with mouse 4T1 cells assessed as pathological changes in liver at 4 mg/kg, iv measured at day 22 post dose by hematoxylin and eosin staining based light microscopic analysis; format: toxicity, organism-based; settings: in vivo
4T1 [2] = test: Phototoxicity against mouse 4T1 cells assessed as cell viability at 0.5 uM preincubated for 4 hrs followed by 2 J/cm2 light irradiation and measured after 24 hrs by MTT assay relative to control; format: functional; settings: 4T1, light or radiation study, read-out: Activity
MCF7 = test: Phototoxicity against human MCF7 cells assessed as cell viability at 0.5 uM preincubated for 4 hrs followed by 0.5 to 2 J/cm2 light irradiation and measured after 24 hrs by MTT assay; format: functional, cell-based
[3] = Selectivity index, ratio of dark toxicity against human MDA-MB-231 cells at 0.5 uM to phototoxicity against human MDA-MB-231 cells at 0.5 uM; format: cell-based; settings: read-out: Selectivity Index
[4] = Induction of apoptosis in human MDA-MB-231 cells assessed as viable cells after 24 hrs by Annexin-V FITC/propidium iodide staining based flow cytometric analysis (reference value: 93.27%); format: cell-based; settings: read-out: Activity
MDA-MB-231 [5] = test: Phototoxicity against human MDA-MB-231 cells assessed as cell viability at 0.5 uM preincubated for 4 hrs followed by 0.5 to 2 J/cm2 light irradiation and measured after 24 hrs by MTT assay; format: functional, cell-based
Mus musculus [6] = test: Nephrotoxicity in BALB/c mouse xenografted with mouse 4T1 cells assessed as pathological changes in kidney at 1 to 4 mg/kg, iv pre-tretaed for 24 hrs followed by 50 J/cm2 light irradiation and measured at day 22 post dose by hematoxylin and eosin staining based light microscopic analysis; format: toxicity, organism-based; settings: in vivo
MDA-MB-231 [7] = test: Induction of apoptosis in human MDA-MB-231 cells assessed as early apoptotic cells after 24 hrs upon light irradiation by Annexin-V FITC/propidium iodide staining based flow cytometric analysis (reference value: 1.22%); format: functional
MDA-MB-231 [8] = test: Induction of ROS generation in human MDA-MB-231 cells incubated with DCF-DA probe for 30 mins by flow cytometric analysis (reference value: 5.81%); format: cell-based; settings: mda-mb-231, 0.5 h
Mus musculus [9] = test: Toxicity in BALB/c mouse xenografted with mouse 4T1 cells assessed as effect on body weight at 1 mg/kg, iv pre-tretaed for 24 hrs followed by 50 J/cm2 light irradiation and measured at day 22 post dose; format: organism-based; settings: in vivo
MDA-MB-231 [10] = test: Induction of ROS generation in human MDA-MB-231 cells incubated with DCF-DA probe for 30 mins followed by 2 J/cm2 light irradiation and measured after 1 hr by flow cytometric analysis (reference value: 5.81%); format: functional
MDA-MB-231 [11] = test: Induction of apoptosis in human MDA-MB-231 cells assessed as necrotic cells after 24 hrs by Annexin-V FITC/propidium iodide staining based flow cytometric analysis (reference value: 4.24%); format: cell-based; settings: mda-mb-231, 24 h
[12] = Dark toxicity against human MDA-MB-231 cells assessed as cell viability at 0.5 uM after 24 hrs by MTT assay; format: cell-based; settings: mda-mb-231, 24 h
4T1 [13] = test: Antitumor activity against mouse 4T1 cells xenografted in BALB/c mouse assessed as inhibition of tumor volume at 4 mg/kg, iv pretreated for 24 hrs followed by 50 J/cm2 light irradiation and measured at day 22 post dose relative to control; format: functional; settings: 4T1, light or radiation study
[14] = Drug uptake in lung of BALB/c mouse xenografted with mouse 4T1 cells at 10 mg/kg, iv measured at 12 hrs post injection by IVIS spectrum imaging; format: ADME, organism-based; settings: in vivo
[15] = Selectivity index, ratio of dark toxicity against mouse 4T1 cells at 0.5 uM to phototoxicity against mouse 4T1 cells at 0.5 uM; format: cell-based; settings: read-out: Selectivity Index
[16] = Drug uptake in lysosome of human MDA-MB-231 cells at 10 uM after 4 hrs by Lyso tracker green-based confocal laser scanning microscopic analysis; format: ADME, subcellular; settings: mda-mb-231, 4 h
MDA-MB-231 [17] = test: Induction of apoptosis in human MDA-MB-231 cells assessed as necrotic cells after 24 hrs upon light irradiation by Annexin-V FITC/propidium iodide staining based flow cytometric analysis (reference value: 4.24%); format: functional
MDA-MB-231 [18] = test: Induction of apoptosis in human MDA-MB-231 cells assessed as late apoptotic cells after 24 hrs by Annexin-V FITC/propidium iodide staining based flow cytometric analysis (reference value: 1.28%); format: cell-based; settings: mda-mb-231, 24 h
MDA-MB-231 [19] = test: Induction of apoptosis in human MDA-MB-231 cells assessed as viable cells after 24 hrs upon light irradiation by Annexin-V FITC/propidium iodide staining based flow cytometric analysis (reference value: 93.27%); format: functional
4T1 [20] = test: Induction of apoptosis in mouse 4T1 cells xenografted in BALB/c mouse at 4 mg/kg, iv after 24 hrs by TUNEL assay; format: functional, organism-based
Mus musculus [21] = test: Toxicity in BALB/c mouse xenografted with mouse 4T1 cells assessed as effect on body weight at 2 mg/kg, iv pre-tretaed for 24 hrs followed by 50 J/cm2 light irradiation and measured at day 22 post dose; format: organism-based; settings: in vivo
[22] = Drug uptake in tumor of BALB/c mouse xenografted with mouse 4T1 cells at 10 mg/kg, iv measured at 12 hrs post injection by IVIS spectrum imaging; format: ADME, organism-based, Neoplasm; settings: in vivo
[23] = Drug uptake in heart of BALB/c mouse xenografted with mouse 4T1 cells at 10 mg/kg, iv measured at 12 hrs post injection by IVIS spectrum imaging; format: ADME, organism-based; settings: in vivo
MDA-MB-231 [24] = test: Induction of ROS generation in human MDA-MB-231 cells incubated with DCF-DA probe for 30 mins followed by 2 J/cm2 light irradiation and measured after 1 hr by flow cytometric analysis (reference value: 2.1%); format: functional
4T1 [25] = test: Antitumor activity against mouse 4T1 cells xenografted in BALB/c mouse at 4 mg/kg, iv preincubated for 24 hrs and measured at day 22 post dose; format: functional, organism-based
MDA-MB-231 [26] = test: Induction of ROS generation in human MDA-MB-231 cells incubated with DCF-DA probe for 30 mins by flow cytometric analysis (reference value: 2.1%); format: cell-based; settings: mda-mb-231, 0.5 h

Drug uptake [14] | Drug uptake [16] | Structure (SMILES) | Activity (Mus musculus [1]) | viability at 0.5 µM (4T1 [2]) [%] | Activity (MCF7) | selectivity ratio at 0.5 µM [3] | viability at 24 h [4] [%] | Activity (MDA-MB-231 [5]) | Activity (Mus musculus [6]) | Activity (MDA-MB-231 [7]) [%] | Activity (Mus musculus [9]) | Activity (MDA-MB-231 [11]) [%] | Activity [12] | inhibition in vivo at 4 mg/kg (4T1 [13]) [%] | selectivity ratio at 0.5 µM [15] | Activity (MDA-MB-231 [17]) [%] | Activity (MDA-MB-231 [18]) [%] | Activity (MDA-MB-231 [19]) [%] | Activity (4T1 [20]) | Activity (Mus musculus [21]) | further results
Not Active | Active | C=Cc1c(C)c2cc3nc(cc4[nH]c(cc5nc(cc1[nH]2)C(C)=C5C(C)OCCCCCC)c(C)c4CCC(=O)[O-])C(CCC(=O)[O-])=C3C.[Na+].[Na+] (centres undefined) | Non-Toxic | 47.3 | Active | 161 | 93.4 | Active | Non-Toxic | 3.82 | Non-Toxic | 0.58 | Non-Toxic | 65.4 | 68.5 | 10.12 | 2.34 | 32.52 | inactive | Non-Toxic | Activity (MDA-MB-231 [8]): 6.34%; Activity (MDA-MB-231 [10]): 87.84%; Drug uptake [22]: Active; Drug uptake [23]: Not Active
Not Active | Active | C=CC1=C(C)c2cc3[nH]c(cc4nc(cc5[nH]c(cc1n2)c(C)c5CCC(=O)[O-])C(CCC(=O)[O-])=C4C)c(C)c3C(C)OCCCCCC.[Na+].[Na+] (centres undefined) | Non-Toxic | 54.6 | Active | 59.6 | 92.8 | Active | Non-Toxic | 7.17 | Non-Toxic | 0.4 | Non-Toxic | 45.4 | 21.7 | 11.12 | 2.73 | 41.63 | inactive | Non-Toxic | Activity (MDA-MB-231 [24]): 46.7%; Activity (4T1 [25]): inactive; Activity (MDA-MB-231 [26]): 2.21%; Drug uptake [22]: Active; Drug uptake [23]: Not Active
